The values that follow come from paper PMC4865845, “A human genome-wide loss-of-function screen identifies effective chikungunya antiviral drugs” (Nature Communications, 2016).

This data set deals with CHIKV. The class given is cell-based, chikungunya virus.
“s28993 (CCATAGATCTGAATTGGGA; chemistry not given here)” came in with a Score_si2 of 0.6.

As for “s79 (sense CCAGCTATCTATAACCTTA; chemistry not given here)”, the Score_si4 was found to be 2.02.

Consider “Hs_MGC2803_1 (TGCGATGTACATAACTATTTA; chemistry not given here)”, for which the Score_si4 was -0.65.

“s993 (GGTGCGTCATATGCAGGAA; chemistry not given here) [reference compound]”: the Score_si2 is listed as -0.55.

“Hs_AOF2_2 (ACATCTTACCTTAGTCATCAA; chemistry not given here)” had a Score_si4 of 0.88.

Regarding “s6672 (sense GACTAATGAACTACTAAAA; chemistry not given here)”, the Score_si3 is 0.16.

“s12109 (sense CAGCCCTTGTTCTCATCAA; chemistry not given here)”: the Score_si3 amounted to 1.16.

On to “Hs_TRAF2_2 (CAGAGTTATTAAACCATTCAA; chemistry not given here) [reference compound]”, for which the Score_si2 is on record as -0.92.

“Hs_SDFR1_10 (sense ACAGGTATATACAGCATATAA; chemistry not given here) [reference compound]” gave a Score_si2 of -2.32.

The substance “Hs_ATP6AP2_3 (AAGGACTATCCTTGAGGCAAA; chemistry not given here)” returned a Score_si1 of 1.26.

Substance “s32097 (ACAGCGCAAGTTCCAGTAT; chemistry not given here)” returned a Score_si2 of 1.75.

“Hs_SULF1_1 (sense TCCGTCGAATTTGAAGGTGAA; chemistry not given here) [reference compound]”: the Score_si1 is given as -2.1.

In the case of “Hs_GUCY1B3_2 (sense ACCTAACATGGTGATCTGCAA; chemistry not given here) [reference compound]”, the Score_si1 was -1.2.

For “Hs_F25965_2 (ACCAGCTTCGTTACTCAGAAA; chemistry not given here)”, the Score_si3 is on record as 1.05.

For “s10857 (sense GAATCCGGTTTGGAATATA; chemistry not given here)”, the Score_si4 was -0.29.

The substance “s8324 (GCTGGGAAGGGATACCACA; chemistry not given here)” came in with a Score_si1 of 1.92.

As for “s195642 (sense GGTGAGGACAAGTTCCAGT; chemistry not given here)”, the Score_si3 is given as 0.49.

In turn, “s195094 (sense CCTCTTCCACCGCTACTTC; chemistry not given here) [reference compound]” yielded a Score_si2 of -0.76.

The substance “Hs_ZBTB24_1 (CTCCAGGAAATTAAATATTTA; chemistry not given here)” had a Score_si2 of 1.74.

On to “Hs_PTPN4_3 (sense AGCACGTACCTTAGAACTCTA; chemistry not given here)”, for which the Score_si3 is on record as 1.47.

Consider “s26230 (sense CGGGACCAATTACCGCAAA; chemistry not given here)”, for which the Score_si4 was -0.18.

For “s10858 (sense CCCGCTTTATCGAAGGCAA; chemistry not given here)”, the Score_si2 came out at 1.05.

In turn, “s19990 (sense GGCTCTGACTACAAACTGA; chemistry not given here)” displayed a Score_si3 of 0.89.

Consider “s3163 (CTATCTTGGGTTTACCGTA; chemistry not given here)”, for which the Score_si2 is reported as 1.54.

Substance “Hs_EP400_1 (CAGAATGATTTGGACATTGAA; chemistry not given here)” had a Score_si1 of 2.29.

With “Hs_PSD3_1 (sense CTCCATTGTCTTACTAACAAA; chemistry not given here) [reference compound]”, the Score_si1 is given as -3.63.

“Hs_IQGAP1_4 (sense TGCCCACTTAAGCATCATTAA; chemistry not given here)” registered a Score_si3 of 0.98.

In turn, “s195938 (sense ATTTATCTCTGCATCGACA; chemistry not given here) [reference compound]” showed a Score_si3 of -0.51.

In turn, “s14674 (sense GTATGAAGGAGGTATCTTT; chemistry not given here)” returned a Score_si2 of 2.12.

Substance “Hs_SULF1_4 (sense AGCATGGATTTGATTATGCAA; chemistry not given here) [reference compound]” displayed a Score_si2 of -1.41.

As for “Hs_COPS2_4 (sense ATCCATTAATTCTATTCTTGA; chemistry not given here)”, the Score_si4 came to 1.19.

Consider “Hs_SCLY_2 (sense CAGAAACTAAATTAACGAATA; chemistry not given here)”, for which the Score_si4 is reported as 1.04.

For “Hs_PPIL2_2 (AAGGAGGAGATCCGCATTGAT; chemistry not given here)”, the Score_si1 is on record as 1.35.

Substance “Hs_CRSP8_2 (sense TCGAACAATAGTAAAGGGATA; chemistry not given here) [reference compound]” showed a Score_si2 of -1.08.

“n268452 (AGCTGGCCATCGAAAGGTA; chemistry not given here)” had a Score_si1 of 0.81.

“Hs_SHC2_10 (sense GCGGTTTGTCCTACAAGTTTA; chemistry not given here)” gave a Score_si4 of 0.47.

With “s25486 (sense GGTCTACAATCGGATGACA; chemistry not given here)”, the Score_si4 came out at 1.05.

Take “s49212 (sense GATCGTTCCTGGGTGTTCA; chemistry not given here)”: the Score_si2 is 0.94.

Substance “s37918 (GAAGAGCACAAGAACCAGA; chemistry not given here)” returned a Score_si3 of 0.93.

In the case of “Hs_APEX2_5 (ACGCTGCAGCACAACAATCAA; chemistry not given here) [reference compound]”, the Score_si4 is recorded as -0.1.

As to “s9627 (GGACCAGTTTGAGAGTGAA; chemistry not given here)”, the Score_si2 is recorded as 1.39.

In turn, “s25626 (sense CAAATCCTATAGTATAACA; chemistry not given here) [reference compound]” yielded a Score_si4 of -0.37.

Substance “Hs_HMMR_2 (sense AAGTTAAGTCTTCGGAATCAA; chemistry not given here)” registered a Score_si1 of 2.42.

In turn, “Hs_PHF10_3 (CGGACAGTTCCAGGAATATTA; chemistry not given here)” gave a Score_si2 of 0.88.

Regarding “Hs_PD2_2 (CACCATTATTGTGAGCAGCAA; chemistry not given here)”, the Score_si1 is recorded as 1.77.

“Hs_F25965_1 (CAGCGAGAACACGCCACTGTA; chemistry not given here)” gave a Score_si1 of 1.49.

Consider “s12353 (sense GGCATGTCGGTTACAAGAA; chemistry not given here)”, for which the Score_si1 came out at 1.86.

For the substance “s18271 (CCTCTTCACTAAGACCCAT; chemistry not given here)”, the Score_si3 was determined as 1.67.

Turning to “Hs_MGC13138_1 (CTGGCATTTCCCGCTCATTTA; chemistry not given here) [reference compound]”, the Score_si1 is given as -2.19.

As to “Hs_MGC11102_1 (TAGCGTGGCTTTAAACATATA; chemistry not given here)”, the Score_si2 is recorded as 1.11.

Substance “Hs_MGC11102_2 (CAGGTGGTTTGTTCTTTCTTA; chemistry not given here)” showed a Score_si1 of 1.25.

Consider “Hs_KIAA0252_2 (sense AAGGAATTATCTATTAAAGAA; chemistry not given here)”, for which the Score_si1 is 2.74.

Substance “s32491 (GCCTGTATATGAGAGCCTT; chemistry not given here)” showed a Score_si4 of 0.05.

Turning to “Hs_POLR1A_2 (TCGGGAGGAATTAGAACAATA; chemistry not given here)”, the Score_si2 was 1.23.

Consider “Hs_E2F3_1 (TTGCGTTACTTTAAGTACTAA; chemistry not given here) [reference compound]”, for which the Score_si1 is reported as -2.09.

“s2665 (sense GCTTCAGGATGTGCCCAAA; chemistry not given here)” came in with a Score_si3 of 0.58.

“Hs_LOC407835_4 (sense CAGGGAGATCAGCATCTGCAT; chemistry not given here)”: the Score_si2 is on record as 0.79.

The substance “Hs_RTN2_2 (sense GAGCTTGGATTTACACTGTAA; chemistry not given here)” yielded a Score_si1 of 2.8.

Consider “s28992 (GAGCAACTCTGGTCGTGTA; chemistry not given here)”, for which the Score_si3 turned out to be 0.46.

As to “Hs_SLC6A19_4 (sense CCAGAAGATCTCCTACCCGAA; chemistry not given here)”, the Score_si2 is 0.84.

On to “Hs_CIZ1_1 (sense CAGGTGAGGTCCAGAGATATA; chemistry not given here) [reference compound]”, for which the Score_si1 is on record as -1.69.

The substance “s38294 (GGGTCCTGTTCATAAAGGA; chemistry not given here)” yielded a Score_si4 of 1.14.

For “Hs_KRTHA2_2 (sense ATGGTTGTGAACATTGATAAT; chemistry not given here)”, the Score_si2 was 1.02.

With “Hs_PTX3_3 (sense AAAGGGATTTGTATTAATTTA; chemistry not given here)”, the Score_si3 stood at 1.09.

Consider “Hs_KRTCAP2_6 (sense CTGACCCTGAATGTTCAATAA; chemistry not given here)”, for which the Score_si1 came out at 1.71.

“s619 (sense CTGCAGTTGTGGTTGGATA; chemistry not given here)”: the Score_si1 is given as 1.92.

“s12471 (sense CTTCTGTACCCATCAGTAA; chemistry not given here)”: the Score_si3 came out at 1.63.

Substance “s37726 (ACTTTTCCCTCTCTCCTAA; chemistry not given here)” showed a Score_si3 of 0.28.

Substance “s3146 (GACCATGGATAATAAGAAA; chemistry not given here)” showed a Score_si4 of -0.15.

Consider “s16996 (CAACATTGGTGGGAATGCA; chemistry not given here)”, for which the Score_si2 was found to be 1.51.

“Hs_CAMKK2_6 (sense CCGCAAGATCTTCTCTGGGAA; chemistry not given here)” displayed a Score_si1 of 1.65.

On to “Hs_LRIG2_1 (AGGGATGTCATTGTAAATATA; chemistry not given here) [reference compound]”, for which the Score_si1 was -2.53.
